{
  "source": "paper PMC8812516",
  "about": "(Proceedings of the National Academy of Sciences of the …, 2022)",
  "origin": "cited, not measured here",
  "tested_on": "Shaker-IR channel",
  "data": [
    {"substance": "charybdotoxin", "values": [
      {"measurement": "effect of inactivation on affinity of toxins", "value": "inactivation does not alter the affinity of toxins for that channel"}
    ]}
  ]
}
